According to paper PMC9026148, “Pre-Clinical Study Evaluating Novel Protein Phosphatase 2A Activators as Therapeutics for Neuroblastoma” (Cancers, 2022):
Where two headings read alike, the source gives them in different places.

Key:
[1] = Microsome (oxidative metabolism) stability, rat; type: in vitro ADME; conditions: for half-life at 1 µM: liver microsomes 0.5 mg/mL, NADPH, read-out: T1/2 Rat; for microsomal CLint at 1 µM: liver microsomes, read-out: CL Rat
Method: (§1) Microsome stability assays were performed by Bioduro, LLC. Briefly, 2.5 µL (100 µM in DMSO) of test compounds are added to 197.5 µL of human, rat, or mouse microsome preparation (0.633 mg/mL in phosphate buffer) and mixed gently at 37 °C. The reaction is started by adding 50 µL NADPH (5 mM in phosphate buffer) and mixing at 37 °C. The final reaction microsome concentration is 0.5 mg/mL. The reaction is sampled at 0, 5, 15, 30, and 60 min. Reaction aliquots are quenched by adding to 1:1 methanol–acetonitrile containing analytical standards and analyzed by liquid chromatography with tandem mass spectrometry (LC-MS/MS).

[2] = Microsome (oxidative metabolism) stability, human; type: in vitro ADME; conditions: for half-life at 1 µM: liver microsomes 0.5 mg/mL, NADPH, read-out: T1/2 Human; for microsomal CLint at 1 µM: liver microsomes, read-out: CL Human
Method: as §1

CYP-3A4 = target: T1, CYP-3A4 (Homo sapiens, UniProt P08684); experiment: Time-dependent CYP-3A4 inhibition (midazolam turnover, human liver microsomes); type: in vitro ADME; conditions: for IC50: 50% inhibition of midazolam turnover
T1 construct: tissue Bioduro, LLC (contract lab that ran the assay); host or cells: human liver microsomes
Method: Time-dependent CYP-3A4 inhibition assays were performed by Bioduro, LLC. In brief, the test compound is pre-incubated with human liver microsomes (0.25 mg/mL in reaction) and NADPH (0.5 mM in reaction) for 5, 30, and 60 min to allow metabolite formation. Midazolam, a known standard substrate of CYP-3A4, is added to give 2.5 µM reaction concentration, and consumption (microsome stability) of midazolam is assayed as above.

WAC2 cells = experiment: Cell cycle analysis by flow cytometry (PI), WAC2; type: cell-based, human; conditions: WAC2, 15 μM, 24 h; for percentage of cells in the S phase: untreated 38.2 ± 1.0; for percentage of cells in G1: untreated 44.7 ± 1.6
Method: To evaluate cell cycle, cells (1 × 10^6) were plated and maintained in respective media with reduced FBS (4%) for cell synchronization. […] Cells were washed with phosphate-buffered saline (PBS) and fixed at 4 °C for 30 min with 100% ethanol. Following a second PBS wash, cells were stained with propidium iodide (PI, Invitrogen, Waltham, MA, USA), RNAse A (0.1 mg/mL, Qiagen, Germantown, MD, USA), and 0.1% TritonX (Active Motif, Carlsbad, CA, USA), and FACSCalibur^TM Flow Cytometer (BD Biosciences, Franklin Lakes, NJ, USA) was used for examination. FlowJo software (FlowJo, LLC, Ashland, OR, USA) was used for data analysis. Data reported as mean percentage cells in phase ± SEM.

SK-N-BE(2) flank tumors = experiment: SK-N-BE(2) flank tumor growth in athymic nude mice; type: in vivo, mouse; conditions: 50 mg/kg bid po
Method: SK-N-AS (1.8 × 10^6) or SK-N-BE(2) (1.5 × 10^6) cells in 25% Matrigel™ (BD Biosciences) were injected into the right flank of 6-week-old female athymic nude mice (Fredricks, Charles River, Wilmington, MA, USA) (n = 5 for SK-N-AS vehicle treated, n = 7 for SK-N-AS 792 or 1154 treatment and all SK-N-BE(2) experimental groups). Calipers were used to measure tumors three times per week, and volumes were calculated by the formula (width^2 × length)/2, where width was the smaller measurement. After tumors reached a volume of 100 mm^3, animals were randomized to three groups to receive 100 µL of either vehicle (N,N-dimethylacetamide (DMA, 271012, Sigma Aldrich) and Kolliphor® HS 15 (Solutol, 42996, Sigma Aldrich)), 792 (50 mg/kg in DMA and Solutol), or 1154 (50 mg/kg in DMA and Solutol) twice daily by oral gavage; dosing based on previously published in vivo cancer models. Animals were weighed weekly and were humanely euthanized in their home cages with CO2 and cervical dislocation when control tumors reached 2000 mm^3; either 9 (SK-N-AS tumors) or 19 days (SK-N-BE(2) tumors) following treatment initiation, or when IACUC parameters were met. Power analysis was completed prior to the study.

[3] = system: SK-N-AS, SK-N-BE(2), SH-EP, WAC2 cells; experiment: Monolayer wound healing (scratch) migration assay; type: cell-based, human; conditions: 36 h; 792 10 μM SK-N-AS, 15 μM others; 1154 10 μM SK-N-AS and SK-N-BE(2), 15 μM SH-EP and WAC2
Method: Since the established neuroblastoma cell lines grow as adherent cells, migration in SK-N-AS, SK-N-BE(2), SH-EP, and WAC2 cells was examined using monolayer wound healing (scratch) assay. […] Once cells reached 80% confluence, a sterile 200 μL pipette tip was used to make a standard scratch in the cell layer. Photographs of the plates were obtained at 0, 12, 24, and 36 h. ImageJ MRI Wound Healing Tool (http://imagej.nih.gov/ij/ (accessed on 14 October 2019) quantified the open wound area, and data reported as fold change of the open area ± SEM. Invasion was evaluated with a modified Boyden chamber technique. The insert bottoms were coated with collagen type I (10 µg/mL, MP Biomedicals, Santa Ana, CA, USA). The insert tops were coated with a layer of Matrigel^TM (1 mg/mL, 50 μL, BD Biosciences). Cells were treated for 24 h with 792 (SK-N-AS 10 μM; SK-N-BE(2), SH-EP, WAC2 15 μM) or 1154 (SK-N-AS, SK-N-BE(2) 10 μM; SH-EP, WAC2 15 μM), plated (4 × 10^4 cells), and allowed to invade through the membrane for 24 h. Insert membranes were fixed using 4% paraformaldehyde, stained with 1% crystal violet for 15 min, photographed, and invasion quantified with ImageJ (http://imagej.nih.gov/ij/ (accessed on 10 September 2019)). Invasion data were reported as mean percent membrane occupied by cells ± SEM. Experiments were completed with at least three biologic replicates.

[4] = 5 min pre-incubation, read-out: IC50 at Pre-incubation time 5 min
[5] = 30 min pre-incubation, read-out: IC50 at Pre-incubation time 30 min
[6] = 60 min pre-incubation, read-out: IC50 at Pre-incubation time 60 min

T1 sequence (P08684 whole entry): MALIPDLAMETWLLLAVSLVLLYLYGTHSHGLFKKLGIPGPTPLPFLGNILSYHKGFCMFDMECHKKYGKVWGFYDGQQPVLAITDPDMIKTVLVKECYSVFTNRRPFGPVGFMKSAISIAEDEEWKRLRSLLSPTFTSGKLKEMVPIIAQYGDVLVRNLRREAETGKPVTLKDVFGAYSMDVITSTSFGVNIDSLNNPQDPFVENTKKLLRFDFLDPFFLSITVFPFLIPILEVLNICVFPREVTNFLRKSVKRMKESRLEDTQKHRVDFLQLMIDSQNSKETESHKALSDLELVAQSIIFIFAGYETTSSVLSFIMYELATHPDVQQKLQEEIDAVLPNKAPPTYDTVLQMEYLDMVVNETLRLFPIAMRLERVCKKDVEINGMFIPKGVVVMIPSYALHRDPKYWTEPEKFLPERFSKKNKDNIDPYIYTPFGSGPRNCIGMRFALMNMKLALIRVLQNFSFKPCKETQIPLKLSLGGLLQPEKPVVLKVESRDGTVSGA

Structure (SMILES)	half-life at 1 µM [1]	microsomal CLint at 1 µM [1]	half-life at 1 µM [2]	microsomal CLint at 1 µM [2]	IC50 (CYP-3A4; [4])	IC50 (CYP-3A4; [5])	IC50 (CYP-3A4; [6])	IC50 shift (CYP-3A4; human, human liver microsomes, probe midazolam (2.5 µM), ratio IC50 5 min / 60 min pre-incubation)	Mean % G1 (± SEM) (WAC2 cells)	Mean % G2 (± SEM) (WAC2 cells)	Mean % S (± SEM) (WAC2 cells)	percentage of cells in the S phase (WAC2 cells)	percentage of cells in G1 (WAC2 cells)	tumor volume (SK-N-BE(2) flank tumors; by day 19, vehicle 2362 ± 53)	Migration (fold change of open wound area) [3]	CYP-3A4 inhibition (CYP-3A4; time-dependent inhibition assay)	tumor volume (SK-N-BE(2) flank tumors; after 17 days, vehicle 2362 ± 53)
O=S(=O)(NC1CCCC(N2c3ccccc3CCc3ccccc32)C1O)c1ccc(OC(F)(F)F)cc1 (stereo not drawn) [DBK-1154]	3 min	521 µL/min/mg	10 min	134 µL/min/mg	42 µM	27 µM	18 µM	2.4	49.6 (± 2.4) %	19.0 (± 1.5) %	28.4 (± 1.6) %	28.4 ± 1.6%	49.6 ± 2.4%	1628 ± 362 mm^3	significantly decreased	–	–
O=S(=O)(N[C@H]1COC[C@@H](n2c3ccc(Cl)cc3c3cc(Cl)ccc32)[C@@H]1O)c1ccc(OC(F)(F)F)cc1 [ATUX-792]	> 256 min	< 5 µL/min/mg	> 256 min	< 5 µL/min/mg	> 50 µM	> 50 µM	> 50 µM	–	54.5 (± 2.3) %	14.3 (± 1.1) %	25.4 (± 2.5) %	25.4 ± 2.5%	54.5 ± 2.3%	–	significantly decreased	no CYP-3A4 inhibition	1383 ± 243 mm^3
